Among the data in patent US6245790A, “Oxazole compounds useful as PGE2 agonists and antagonists” (Fujisawa Pharmaceutical Co., Ltd., priority 1997, dated 2001) are IgG1 secretion, IgE secretion and inhibition values, retold here.

Each structure is given as a SMILES string.

The subject of one assay is Mouse B Lymphocytes. As to the kind of experiment: Effect on PGE2-induced IgE and IgG1 secretion in mouse B lymphocytes (LPS and IL-4, ELISA). The assay is classed as cell-based, mouse (BDF1). The settings on record: + 10^-5 M Test Compound, LPS and IL-4, 6 days, Mean ± S.E.M. (n = 4). The method, then:
Effect on IgE and IgG1 Secretion in Mouse B Lymphocytes
Inhibitory properties of a test compound against PGE2 -induced IgE and IgG1 secretion in isolated resting B lymphocytes of mice were tested. Resting mouse B lymphocytes were isolated from spleens of 12-week-old BDF1 male mice (Clea Japan Inc.) using adherent cell depletion, negative selection by FITC-anti-Thy 1.2 (30H12), FITC-anti-CD4 (GK1.5), FITC-anti-CD11b (M1/70) and FITC-anti-CD8a (5.-6.7) (Pharmingen) with anti-FITC Ab coating magnetic beads (PerSpective Daiagnostics) and Percoll gradient (Pharmacia). Resting B lymphocytes were cultured in flat-bottomed96-well microtiter plates (Becton Dickinson) at 1×10^6 cells per ml and preincubated with a test compound or DMSO control for 30 minutes. Then PGE2 were added at 10^-6 M. After 1 hour, LPS and IL-4 were added and incubated at 37° C. in a humidified atmosphere with 5% CO2. After 6 days, supernatants were collected and IgE and IgG1 were measured by the ELISA.
Background: In an ELISA, binding on a coated surface is turned into a signal by an enzyme label.

Assay [1] has as its target T1, prostanoide receptor subtype (human EP4) (Homo sapiens, UniProt P35408).
T1 construct: expressed in transfected cells; host or cells: COS-7
The experiment in a line: Binding assay using expression of prostanoide receptor subtype ([3H]-PGE2 competition, COS-7 membrane fraction). The conditions noted are these: compound at 10 μM, 1 hour at 30° C., COS-7 cells transfected human EP4. The method, then: Binding Assay Using Expression of Prostanoide Receptor Subtype
The membrane fraction was prepared using COS-7 cells transfected prostanoide receptor subtype (human EP4).
The Standard assay mixture contained membrane fraction, [^3 H]-PGE2 in final volume of 0.25 ml was incubated for 1 hour at 30° C. The reaction was terminated by that the mixture was rapidly filtered through a glass filter (GF/B). Then the filter was washed by 4 ml of ice-cold buffer at two times. The radioactivity associated with the filter was measured by liquid scintillation counting.
In the experiment for competition of specific [^3 H]-PGE2 was added at a concentration of 10 μM. The following buffer was used in all reactions.
Buffer: 20 mM Mes (pH 6.0), 1 mM EDTA, 10 mM MgCl2

T1 sequence (P35408 whole entry): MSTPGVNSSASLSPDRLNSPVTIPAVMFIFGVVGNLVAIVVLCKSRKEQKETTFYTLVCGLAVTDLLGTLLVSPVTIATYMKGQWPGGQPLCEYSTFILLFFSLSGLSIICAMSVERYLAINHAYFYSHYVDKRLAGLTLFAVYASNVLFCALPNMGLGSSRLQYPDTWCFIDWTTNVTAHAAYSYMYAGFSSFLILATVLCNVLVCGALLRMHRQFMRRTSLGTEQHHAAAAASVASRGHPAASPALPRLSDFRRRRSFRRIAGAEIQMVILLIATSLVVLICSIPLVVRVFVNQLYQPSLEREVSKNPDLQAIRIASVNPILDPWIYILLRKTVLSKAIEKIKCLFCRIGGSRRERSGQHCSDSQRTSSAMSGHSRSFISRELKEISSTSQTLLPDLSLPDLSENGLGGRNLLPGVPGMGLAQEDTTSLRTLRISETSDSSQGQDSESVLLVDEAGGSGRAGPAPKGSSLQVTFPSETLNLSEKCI

As for `O=C([O-])c1cccc(C[C@@H]2CCCC=C2c2nc(-c3ccccc3)c(-c3ccccc3)o2)c1.[Na+]` [Test Compound, Sodium (S)-3-{[2-(4,5-diphenyloxazol-2-yl)-2-cyclohexen-1-yl]methyl}benzoate], the IgG1 secretion in the assay with Mouse B Lymphocytes (+ 10^-6 M PGE2, # p < 0.01 v.s. Control (-PGE2)) came out at 1607.6 ± 150.9 ng/mL; in the assay on Mouse B Lymphocytes (-PGE2) it was 1053.0 ± 176.2 ng/mL. Moreover, the IgE secretion in the assay with Mouse B Lymphocytes (+ 10^-6 M PGE2, * p < 0.01 v.s. Control (+10^-6 M PGE2)) worked out at 37.0 ± 7.0 ng/mL; in the assay with Mouse B Lymphocytes (-PGE2), 21.2 ± 5.7 ng/mL.
On to `NC(=O)COc1cccc(C[C@@H]2CCCC=C2c2nc(-c3ccccc3)c(-c3ccccc3)o2)c1` [Test Compound (3), (S)-{3-{[2-(4,5-Diphenyloxazol-2-yl)-2-cyclohexen-1-yl]-methyl}phenoxy}actamide], for which the inhibition (as a rule, the share of the control response that was lost under treatment) at 10 µM in assay [1] is above 80%.
Still for that read-out and setting: the value for `O=C(O)c1ccc(C[C@@H]2CCCC=C2c2nc(-c3ccccc3)c(-c3ccccc3)o2)cc1` [Test Compound (2), (S)-4-{[2-(4,5-Diphenyloxazol-2-yl)-2-cyclohexen-1-yl]-methyl}benzoic acid] was above 80%; that for `COc1cccc(C[C@@H]2CCC=C2c2nc(-c3ccccc3)c(-c3ccccc3)o2)c1` [Test Compound (1), (S)-2-(4,5-Diphenyloxazol-2-yl)-1-(3-methoxybenzyl)-2-cyclopentene] was above 80%.
